{"source": "patent US20240316023A1", "about": "“BENEDIN, PIPERIDINE, 2-BENZHYDRYL-3-HYDROXY-N-METHYL-, HYDROCHLORIDE AND DERIVATIVES THEREOF FOR USE IN TREATING KLEINE-LEVIN SYNDROME” (priority 2021, published 2024)", "key": {"[1]": {"molecular_target": "T1, mu (h) (MOP) (agonist radioligand) (Homo sapiens, UniProt P35372)", "T1 construct": "CEREP (Eurofins, France), contract panel", "T1 sequence (P35372 whole entry)": "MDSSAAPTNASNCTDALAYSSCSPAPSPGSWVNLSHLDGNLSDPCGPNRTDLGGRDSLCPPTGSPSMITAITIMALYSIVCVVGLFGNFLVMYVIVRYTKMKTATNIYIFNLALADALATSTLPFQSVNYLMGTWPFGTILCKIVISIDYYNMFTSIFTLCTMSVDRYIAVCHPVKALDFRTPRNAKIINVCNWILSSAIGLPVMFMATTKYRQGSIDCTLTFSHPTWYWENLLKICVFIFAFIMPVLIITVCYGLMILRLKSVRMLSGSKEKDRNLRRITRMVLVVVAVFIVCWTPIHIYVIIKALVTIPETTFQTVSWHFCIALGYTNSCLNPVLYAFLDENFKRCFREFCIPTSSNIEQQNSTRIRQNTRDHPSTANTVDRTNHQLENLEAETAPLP", "assay": "Radioligand binding panel (Eurofins/CEREP), mu opioid", "conditions": "10^−5 M; % inhibition of control specific binding; read-out: % Inhibition at 10^−5M Benedin", "protocol": "(§1) Benedin was tested at 10^−5 M, calculated as a % inhibition of control specific binding of a radioactively labeled ligand specific for each target.\n(§2) This binding profile panel was broadly defined with roughly an equal number of selective, central and peripheral therapeutically relevant targets, including native animal tissues, radioligands and specific enzymes involved in cell cycle regulation in accordance with Eurofins Standard Operating Procedure.\n(§3) For radioligand binding experiments, the half maximal inhibitory concentration (IC50) and the half maximal effective concentration (EC50) values were determined (via computer software) by nonlinear regression analysis of the competition curves using Hill equation curve fitting. The inhibition constants (Ki) were calculated using the Cheng-Prusoff equation (Ki=IC50/(1+(L/KD)), where L is the concentration of radioligand in the assay, and KD is the affinity of the radioligand for the receptor.^60\n(§4) The results are expressed as a % control specific binding ([measured specific binding/control specific binding]×100) and as a % inhibition of control specific binding (100−[(measured specific binding/control specific binding)×100] obtained in the presence of the test compounds. […]"}, "Mice, C57BL/6J, male": {"system": "Mice, C57BL/6J, male", "assay": "Novel object recognition (NOR) test, long-term memory", "type": "in vivo", "conditions": "for DI Discrimination Index = 100 × (N − F)/(N + F) / N − F Exploration time novel − familiar object: choice trial 72 h post treatment, mean, N = 16; for recognition of the familiar object, i.e. memory: 3-days interval", "protocol": "Long-term episodic memory was tested in the NOR test, using a 3-days interval between the acquisition session (called sample trial) and the retention session (called choice trial). This method allows to detect an improvement of memory in the natural forgetting condition:\nThe test was carried out in circular boxes (30 cm diameter, 40 cm high). The objects to be discriminated (L≈1≈h≈3-4 cm) differed in both color and shape and were referred as yellow duck and blue lego. They were fixed with a magnet to the floor of the boxes at 5 cm of the wall, 20 cm distant. Apparently, they have no natural significance for mice and they have never been associated with a reinforcement. In order to rule out the possibility of scent traces left on the objects and therefore the dependency of the recognition capacity of mice on the olfactory cue, the objects and the ground of the box were washed with an odorless disinfectant (Sanicid® diluted in water) and dried between each trial. A camcorder was fixed to the ceiling above the box to record the animals' activity. The experiment was analyzed blindly at a later time.\nOn the week before the test, animals were handled by the experimenter in charge of the experiment in order to be not stressed at the time of testing. For this purpose, the experimenter placed a small amount of litter, and then the mouse on its hand. […] The NOR test was completed over five days (see FIG. 1): • Day 1: Habituation trial. Animals were individually placed for a 15-min free exploration session in empty open boxes. • Day 2. Treatment administration and sample trial. […] They were individually placed 30 min after in the apparatus for a 6-min session with two identical objects (Duck, 50% of animals or Lego, 50% of animals). • […]. […]. The mice were individually placed for a 6-min session in the apparatus with two objects (Duck and Lego), one of the objects presented in sample trials (termed as familiar objects) and a novel object (Lego, 50% of animals or Duck, 50% of animals).\nThe sample and choice trials were recorded with the camera located above the apparatus. The time spent by mice in exploring the objects was measured during the sample trial and the choice trial.\nExploration of an object was defined as follows: directing the nose to the object at a distance≤2 cm and/or touching it with the nose or forelimbs: turning around or biting the object, or sitting on the object were not considered as exploratory behavior.\nData recorded: • L=exploration time of the left object in the sample trial. • R=exploration time of the right object in the sample trial. • N=exploration time of the new object in the choice trial. • F=exploration time of the familiar object in the choice trial. Object recognition task indices include the following parameters: • Exploration indices: • ST=L+R=exploration time (left object+right object) in the sample trial. • CT=N+F=exploration time (new object+familiar object) in the choice trial. • Two memory indices: • N−F=difference of exploration time between the new object and the familiar object in the choice trial.\nStatistical analyses: • Read-outs: DI, N−F, ST, CT, N, F • Unpaired Student's t test: Donep 2 group vs. Control group. • One-way ANOVA, Dunnett test: • Benedin groups vs. Control group. • Benedin groups vs. Donep 2 group. • Read-outs: DI and N−F, for all groups, paired Student's t test, difference vs. 0. • Body weight: one-way ANOVA."}, "[2]": {"molecular_target": "T2, M3 (h) (antagonist radioligand) (Homo sapiens, UniProt P20309)", "T2 construct": "CEREP (Eurofins, France), contract panel", "T2 sequence (P20309 whole entry)": "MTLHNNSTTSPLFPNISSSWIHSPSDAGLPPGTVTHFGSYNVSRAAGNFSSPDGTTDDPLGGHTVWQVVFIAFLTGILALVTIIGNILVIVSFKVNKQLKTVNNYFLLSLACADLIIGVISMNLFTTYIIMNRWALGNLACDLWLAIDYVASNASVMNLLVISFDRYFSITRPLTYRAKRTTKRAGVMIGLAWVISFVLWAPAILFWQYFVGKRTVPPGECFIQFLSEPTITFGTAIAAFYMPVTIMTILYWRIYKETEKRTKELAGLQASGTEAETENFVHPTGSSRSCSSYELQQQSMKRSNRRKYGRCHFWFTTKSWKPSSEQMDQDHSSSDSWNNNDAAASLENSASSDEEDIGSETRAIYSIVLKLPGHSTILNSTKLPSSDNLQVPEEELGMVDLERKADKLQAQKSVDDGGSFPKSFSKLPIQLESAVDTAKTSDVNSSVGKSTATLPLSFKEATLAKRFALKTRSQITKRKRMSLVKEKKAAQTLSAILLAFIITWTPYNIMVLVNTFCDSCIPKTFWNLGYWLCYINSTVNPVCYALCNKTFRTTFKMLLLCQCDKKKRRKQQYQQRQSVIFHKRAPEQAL", "assay": "Radioligand binding panel (Eurofins/CEREP), M3", "conditions": "10^−5 M; % inhibition of control specific binding; read-out: % Inhibition at 10^−5M Benedin", "protocol": "as §1, §2, §3, §4"}, "[3]": {"molecular_target": "T3, DAT (h) (antagonist radioligand) (Homo sapiens, UniProt Q01959)", "T3 construct": "CEREP (Eurofins, France), contract panel", "T3 sequence (Q01959 whole entry)": "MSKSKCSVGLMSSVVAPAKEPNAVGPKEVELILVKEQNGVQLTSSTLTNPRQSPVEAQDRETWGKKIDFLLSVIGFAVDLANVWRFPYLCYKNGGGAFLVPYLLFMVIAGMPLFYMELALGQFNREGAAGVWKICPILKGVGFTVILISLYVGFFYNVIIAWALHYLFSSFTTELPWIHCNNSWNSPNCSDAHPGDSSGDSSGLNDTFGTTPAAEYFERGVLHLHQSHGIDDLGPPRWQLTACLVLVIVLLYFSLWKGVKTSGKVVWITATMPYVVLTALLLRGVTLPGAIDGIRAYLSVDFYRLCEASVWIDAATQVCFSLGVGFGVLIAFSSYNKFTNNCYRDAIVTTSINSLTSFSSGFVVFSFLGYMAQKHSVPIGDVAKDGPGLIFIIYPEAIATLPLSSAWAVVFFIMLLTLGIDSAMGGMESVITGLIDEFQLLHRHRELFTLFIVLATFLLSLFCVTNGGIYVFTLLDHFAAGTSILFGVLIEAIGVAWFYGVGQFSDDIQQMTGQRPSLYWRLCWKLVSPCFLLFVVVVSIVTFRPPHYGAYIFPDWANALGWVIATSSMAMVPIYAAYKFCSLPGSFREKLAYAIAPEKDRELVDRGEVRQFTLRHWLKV", "assay": "Radioligand binding panel (Eurofins/CEREP), DAT", "conditions": "% inhibition of control specific binding", "protocol": "as §1, §2, §3, §4"}, "[4]": {"molecular_target": "T4, NET (h) (antagonist radioligand) (Homo sapiens, UniProt P23975)", "T4 construct": "CEREP (Eurofins, France), contract panel", "T4 sequence (P23975 whole entry)": "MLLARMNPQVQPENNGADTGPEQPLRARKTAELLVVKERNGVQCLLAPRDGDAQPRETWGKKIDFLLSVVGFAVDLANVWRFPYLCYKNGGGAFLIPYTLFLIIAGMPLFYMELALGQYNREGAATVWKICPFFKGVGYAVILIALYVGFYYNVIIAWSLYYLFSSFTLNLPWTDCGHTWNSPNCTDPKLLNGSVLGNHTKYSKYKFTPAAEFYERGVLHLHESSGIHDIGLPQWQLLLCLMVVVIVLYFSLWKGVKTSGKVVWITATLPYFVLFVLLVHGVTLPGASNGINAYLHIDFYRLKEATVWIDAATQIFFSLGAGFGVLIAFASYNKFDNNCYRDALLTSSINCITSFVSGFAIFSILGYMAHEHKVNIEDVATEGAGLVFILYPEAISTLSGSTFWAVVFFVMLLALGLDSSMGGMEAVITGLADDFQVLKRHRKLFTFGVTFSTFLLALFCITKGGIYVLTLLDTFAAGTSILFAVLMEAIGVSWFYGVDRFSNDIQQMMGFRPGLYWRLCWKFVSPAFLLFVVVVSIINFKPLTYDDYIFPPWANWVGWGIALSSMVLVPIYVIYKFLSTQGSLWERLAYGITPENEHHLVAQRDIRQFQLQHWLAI", "assay": "Radioligand binding panel (Eurofins/CEREP), NET", "conditions": "% inhibition of control specific binding", "protocol": "as §1, §2, §3, §4"}, "[5]": {"conditions": "10^−5 M, read-out: % Inhibition at 10^−5M Benedin"}}}
{"smiles": "CN1CCCC(O)C1C(c1ccccc1)c1ccccc1", "note": "(stereo not drawn) [Benedin, 2-benzhydryl-3-hydroxy-N-methyl-piperidine]", "values": [{"measurement": "inhibition at 10 µM", "setting": "[1]", "result": 24.4, "unit": "%"}, {"measurement": "DI Discrimination Index = 100 × (N − F)/(N + F)", "setting": "Mice, C57BL/6J, male; Benedin 0.1 mg/kg i.p. 30 min before sample trial", "result": "not significantly different from 0"}, {"measurement": "DI Discrimination Index = 100 × (N − F)/(N + F)", "setting": "Mice, C57BL/6J, male; Benedin 0.1 mg/kg i.p. 30 min before sample trial, listed as NLS-11", "result": 12.0}, {"measurement": "recognition of the familiar object, i.e. memory", "setting": "Mice, C57BL/6J, male; Benedin 0.1 mg/kg i.p.", "result": "not significant"}, {"measurement": "N − F Exploration time novel − familiar object", "setting": "Mice, C57BL/6J, male; Benedin 0.1 mg/kg i.p.", "result": "not significantly different from 0"}, {"measurement": "N − F Exploration time novel − familiar object", "setting": "Mice, C57BL/6J, male; Benedin 0.1 mg/kg i.p., listed as NLS-11", "result": 3.4, "unit": "s"}, {"measurement": "DI Discrimination Index = 100 × (N − F)/(N + F)", "setting": "Mice, C57BL/6J, male; Benedin 0.5 mg/kg i.p. 30 min before sample trial", "result": "significantly higher than 0"}, {"measurement": "DI Discrimination Index = 100 × (N − F)/(N + F)", "setting": "Mice, C57BL/6J, male; Benedin 0.5 mg/kg i.p. 30 min before sample trial, listed as NLS-11", "result": 23.5}, {"measurement": "recognition of the familiar object, i.e. memory", "setting": "Mice, C57BL/6J, male; Benedin 0.5 mg/kg i.p.", "result": "significant"}, {"measurement": "N − F Exploration time novel − familiar object", "setting": "Mice, C57BL/6J, male; Benedin 0.5 mg/kg i.p.", "result": "significantly higher than 0"}, {"measurement": "N − F Exploration time novel − familiar object", "setting": "Mice, C57BL/6J, male; Benedin 0.5 mg/kg i.p., listed as NLS-11", "result": 6.2, "unit": "s"}, {"measurement": "DI Discrimination Index = 100 × (N − F)/(N + F)", "setting": "Mice, C57BL/6J, male; Benedin 1 mg/kg i.p. 30 min before sample trial", "result": "not significantly different from 0"}, {"measurement": "DI Discrimination Index = 100 × (N − F)/(N + F)", "setting": "Mice, C57BL/6J, male; Benedin 1 mg/kg i.p. 30 min before sample trial, listed as NLS-11", "result": 13.0}, {"measurement": "recognition of the familiar object, i.e. memory", "setting": "Mice, C57BL/6J, male; Benedin 1 mg/kg i.p.", "result": "not significant"}, {"measurement": "N − F Exploration time novel − familiar object", "setting": "Mice, C57BL/6J, male; Benedin 1 mg/kg i.p.", "result": "not significantly different from 0"}, {"measurement": "N − F Exploration time novel − familiar object", "setting": "Mice, C57BL/6J, male; Benedin 1 mg/kg i.p., listed as NLS-11", "result": 4.0, "unit": "s"}, {"measurement": "inhibition at 10 µM", "setting": "[2]", "result": 44.6, "unit": "%"}, {"measurement": "inhibition at 10 µM", "setting": "[3]; [5]", "result": 99.1, "unit": "%"}, {"measurement": "% Inhibition at 10^−5M Benedin", "setting": "[3]", "result": "appreciable potencies"}, {"measurement": "inhibition at 10 µM", "setting": "[4]; [5]", "result": 71.9, "unit": "%"}, {"measurement": "% Inhibition at 10^−5M Benedin", "setting": "[4]", "result": "appreciable potencies"}]}
